{
  "source": "patent US20090181898A1",
  "about": "“ABUSE-RESISTANT A[…]” (SHIRE LLC, priority 2002, published 2009)",
  "key": {"rats": {"test_system": "rats", "test": "Single oral dose toxicity", "type": "in vivo, Sprague Dawley rats", "details": "rat", "procedure": "Three male and three female Sprague Dawley rats per group were given a single oral administration of L-lysine-d-amphetamine at 0.1, 1.0, 10, 60, 100, or 1000 mg/kg (Table 53).\nAnimals found dead, or sacrificed moribund were necropsied and discarded."}, "[1]": {"test": "Intranasal bioavailability of peptide amphetamine conjugates (HCl salts, ELISA)", "details": "rat, parenteral routes"}},
  "data": [
    {"smiles": "CC(Cc1ccccc1)NC(=O)C(N)CCCCN", "note": "[L-lysine-d-amphetamine, 2,6-diaminohexanoic acid-(1-methyl-2-phenylethyl)-amide]", "values": [
      {"measurement": "Mortality", "setting": "rats; oral, 1000 mg/kg", "value": "only one death occurred out of a group of six animals"},
      {"measurement": "Lethal oral dose", "setting": "rats; single oral administration", "value": "above 1000 mg/kg"},
      {"measurement": "Bioavailability by parenteral routes of administration", "setting": "[1]", "value": "decreased parenteral bioavailability"}
    ]}
  ]
}
